In patent US20240083861A1, “HSD17B13 INHIBITORS AND USES THEREOF” (FL2022-001, Inc., priority 2020, published 2024):

Each molecule was assayed against T1, Recombinant human HSD17B13 enzyme (Homo sapiens, UniProt Q7Z5P4) (assay: HSD17b13 NAD(P)H-Glo biochemical assay). Settings: 50 uM estradiol, 1 mM NAD+, NAD(P)H-Glo luminescence; read-out: HSD17β13 IC50.
T1 sequence (Q7Z5P4 20-300): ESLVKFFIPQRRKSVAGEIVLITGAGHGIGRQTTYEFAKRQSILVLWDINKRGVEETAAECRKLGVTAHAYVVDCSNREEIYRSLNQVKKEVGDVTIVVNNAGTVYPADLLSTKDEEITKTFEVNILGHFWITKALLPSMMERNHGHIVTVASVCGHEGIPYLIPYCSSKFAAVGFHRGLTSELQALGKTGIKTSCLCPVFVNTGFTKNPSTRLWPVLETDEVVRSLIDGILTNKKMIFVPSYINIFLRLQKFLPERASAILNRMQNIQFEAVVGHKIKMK
How it was run: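 Luminescent NAD(P)H-Glo read-out, taken after 1 hour at RT, measured cofactor reduction. Substrate and cofactor were estradiol at 50 uM and NAD+ at 1 mM final, reacted with the recombinant human enzyme for 3 hours at 37° C in 20 mM Tris pH7.4, 0.002% Tween-20, 0.02% BSA. Compound was pre-incubated with enzyme for 20 minutes at RT.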

Row | SMILES | IC50
1 | CN1CCN(c2ncc3c(-c4cc(C(F)(F)F)c(F)c(O)c4F)nn(C)c3n2)C(c2ccccc2)C1 (stereo not drawn) [Compound 18.53, 2,6-Difluoro-3-(1-methyl-6-(4-methyl-2-phenylpiperazin-1-yl)-1H-pyrazolo[3,4-d]pyrimidin-3-yl)-5-(trifluoromethyl)phenol] | < 100 nM
2 | Cn1nc(-c2cc(C(F)(F)F)c(F)c(O)c2F)c2cnc(N3CCOC(c4cccnc4)C3)nc21 (stereo not drawn) [Compound 18.55, 2,6-Difluoro-3-(1-methyl-6-(2-(pyridin-3-y1)morpholino)-1H-pyrazolo[3,4-d]pyrimidin-3-y1)-5-(trifluoromethyl)phenol] | < 100 nM
3 | Cn1nc(-c2cc(C(F)(F)F)c(F)c(O)c2F)c2cnc(N3CCOC(c4ccncc4)C3)nc21 (stereo not drawn) [Compound 18.56, 2,6-Difluoro-3-(1-methyl-6-(2-(pyridin-4-y1)morpholino)-1H-pyrazolo[3,4-d]pyrimidin-3-y1)-5-(trifluoromethyl)phenol] | < 100 nM
4 | Cn1nc(-c2cc(C(F)(F)F)c(F)c(O)c2F)c2cnc(N3CCOC(CC(=O)O)C3)nc21 (stereo not drawn) [Compound 18.57, 2-(4-(3-(2,4-Difluoro-3-hydroxy-5-(trifluoromethyl)phenyl)-1-methyl-1H-pyrazolo[3,4-d]pyrimidin-6-yl)morpholin-2-yl)acetic Acid] | 1000 to 30000 nM
5 | Cn1cc(C2CN(c3ncc4c(-c5cc(C(F)(F)F)c(F)c(O)c5F)nn(C)c4n3)CCO2)cn1 (stereo not drawn) [Compound 18.58, 2,6-Difluoro-3-(1-methyl-6-(2-(1-methyl-1H-pyrazol-4-yl)morpholino)-1H-pyrazolo[3,4-d]pyrimidin-3-y1)-5-(trifluoromethyl)phenol] | < 100 nM
6 | Cn1nc(-c2cc(C(F)(F)F)c(F)c(O)c2F)c2cnc(N3CCOC(C4CC4)C3)nc21 (stereo not drawn) [Compound 18.59, 3-(6-(2-Cyclopropylmorpholino)-1-methyl-1H-pyrazolo[3,4-d]pyrimidin-3-y1)-2,6-difluoro-5-(trifluoromethyl)phenol] | < 100 nM
7 | Cn1nc(-c2cc(C(F)(F)F)c(F)c(O)c2F)c2cnc(N3CCN(S(C)(=O)=O)C4(CC4)C3)nc21 [Compound 18.62, 2,6-Difluoro-3-(1-methyl-6-(4-(methylsulfony1)-4,7-diazaspiro [2.5]octan-7-y1)-1H-pyrazolo[3,4-d]pyrimidin-3-y1)-5-(trifluoromethyl)phenol] | < 100 nM
8 | Cn1nc(-c2cc(C(F)(F)F)c(F)c(O)c2F)c2cnc(N3CCN(S(C)(=O)=O)C4(CCC4)C3)nc21 [Compound 18.63, 2,6-Difluoro-3-(1-methyl-6-(5-(methylsulfony1)-5,8-diazaspiro[3.5]nonan-8-yl)-1H-pyrazolo[3,4-d]pyrimidin-3-y1)-5-(trifluoromethyl)phenol] | < 100 nM

Other lines, results leading:

Row | IC50 | SMILES
9 | 100 to 1000 nM | Cc1nnc(C2CN(c3ncc4c(-c5cc(C(F)(F)F)c(F)c(O)c5F)nn(C)c4n3)CCO2)o1 (stereo not drawn) [Compound 18.52, 2,6-Difluoro-3-(1-methyl-6-(2-(5-methyl-1,3,4-oxadiazol-2-y1)morpholino)-1H-pyrazolo[3,4-d]pyrimidin-3-y1)-5-(trifluoromethyl)phenol]
10 | < 100 nM | Cn1nc(-c2cc(C(F)(F)F)c(F)c(O)c2F)c2cnc(N3CCS(=O)(=O)C(C)(C)C3)nc21 [Compound 18.54, 4-(3-(2,4-Difluoro-3-hydroxy-5-(trifluoromethyl)phenyl)-1-methyl-1H-pyrazolo[3,4-d]pyrimidin-6-yl)-2,2-dimethylthiomorpholine 1,1-dioxide]
11 | 100 to 1000 nM | Cn1nc(-c2cc(C(F)(F)F)c(F)c(O)c2F)c2cnc(N3CCC(N4CCOCC4)CC3)nc21 [Compound 18.60, 2,6-Difluoro-3-(1-methyl-6-(4-morpholinopiperidin-1-yl)-1H-pyrazolo[3,4-d]pyrimidin-3-y1)-5-(trifluoromethyl)phenol]
12 | < 100 nM | COC1(C)CCN(c2ncc3c(-c4cc(C(F)(F)F)c(F)c(O)c4F)nn(C)c3n2)CC1 [Compound 18.61, 2,6-Difluoro-3-(6-(4-methoxy-4-methylpiperidin-1-yl)-1-methyl-1H-pyrazolo[3,4-d]pyrimidin-3-yl)-5-(trifluoromethyl)phenol]
